Assays:
LOX = target: T1, LOX (Homo sapiens, UniProt P28300); experiment: LOX fluorescent activity assay, in vitro (conditioned medium from hypoxic cells); type: biochemical; conditions: 500 μM BAPN, set as 0 fluorescence
T1 construct: endogenous in cells; host or cells: Hypoxic cancer cells
T1 sequence (P28300 169-417): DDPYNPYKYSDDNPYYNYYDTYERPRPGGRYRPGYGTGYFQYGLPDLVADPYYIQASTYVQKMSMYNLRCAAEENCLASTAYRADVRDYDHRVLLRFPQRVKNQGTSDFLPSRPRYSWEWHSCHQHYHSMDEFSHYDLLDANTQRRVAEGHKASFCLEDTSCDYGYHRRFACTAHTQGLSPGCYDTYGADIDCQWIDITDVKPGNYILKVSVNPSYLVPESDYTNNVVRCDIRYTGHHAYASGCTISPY
Source text: LOX activity may be measured in a number of ways, using a soluble elastin or soluble collagen with labeled lysine as a substrate. Details of an activity assay are given in Royce et al., “Copper metabolism in mottled mouse mutants. The effect of copper therapy on lysyl oxidase activity in brindled (Mobr) mice,” Biochem J. 1982 Feb. 15; 202(2): 369-371. Especially preferred is a […] assay. One is described in Palamakumbura, et al. “A fluorometric assay for detection of lysyl oxidase enzyme activity in biological samples,” Anal Biochem. 2002 Jan. 15; 300(2):245-51. This method was used in the present work to assess LOX inhibition by BAPN and by anti-LOX antibody in cells in culture (using conditioned media) and in mice (using plasma), in a 96-well format.
LOX activity assay. The original method is described in Folgelgren, et al. J. Biol. Chem. 280:24690-24697 (2005). For the in vivo data, terminal bleeds were taken at the end of the experiment described above from untreated (control) mice, 2 and 3 wk BAPN mice, and antibody-treated mice. […] For the in vitro data, 50 μl of conditioned phenol-red-free medium was taken from cells incubated for 24 h under conditions of hypoxia. Samples were incubated overnight at 37° C. with different concentrations of BAPN or with purified LOX antibody at a concentration equivalent to 20 mg kg^−1 dose. Again, 0=fluorescent reading for 500 μM BAPN.

[1] = test system: fibronectin null mouse embryonic fibroblasts; experiment: In vitro invasion of fibronectin null cells; type: cell-based
Procedure: FIG. 8 is a graph (A) showing fibronectin null mouse embryonic fibroblasts subjected to in vitro invasion assays; untreated invasion was compared with that of cells transfected with LOX antisense oligos (Antisense) or incubated with BAPN, and (B) Adhesion of SiHa cells expressing DSRED to matrix was assessed over time.
A role for fibronectin (FN) was sought, because it was strongly associated with LOX expression in the breast cancer microarray data set that was analyzed (data not shown), is reported to regulate invasion, bind to integrins and interact with LOX, and is hypoxia induced. […] FAK phosphorylation could be induced in the cells expressing LOX shRNA by transfection with mature LOX (but not catalytically dead LOX), confirming a role for LOX in FAK phosphorylation. […] It is proposed here that this is because LOX increases fibrillar collagen, which is a ligand for b1 integrin. Other integrin pathways have been reported to mediate hypoxia-induced invasion.

MDA-MB 231 cells = MDA-MB 231 cells grown as orthotopic tumors in nude mice; lung and liver metastases
Procedure: In addition, MDA231 cells were grown as orthotopic tumors in nude mice. […] In FIGS. 5 A and B, data were obtained by microscopic quantification of metastases in lungs and livers stained with hematoxylin and eosin. […] 4 wk BAPN represents treatment started at week 4, etc.
To evaluate the therapeutic usefulness of inhibiting LOX, mice with control MDA231 tumors were treated with β-aminoproprionitrile (BAPN), a specific and irreversible inhibitor of LOX enzymatic activity. […] In FIG. 5C, metastases were counted weekly over six weeks for ten sections (n=5 mice). Solid line, with circles control lung; dashed line with triangles, control liver; solid line with squares, BAPN lung; dashed line with squares, BAPN liver. BAPN was started at week 2. Antibody doses: unlabelled, 20 mg kg^−1; asterisk, 4 mg kg^−1; two asterisks, 1 mg kg^−1. Control, n=10; LOX shRNA, n=10; 4 wk BAPN, n=10; 3 wk BAPN, n=3; 2 wk BAPN, n=3; LOX antibody, n=5. Treatment details are given in Methods.
MDA-MB 231 cells were grown as subcutaneous orthotopic tumors in 6-week-old female Nude (nu/nu) mice following intradermal injection of 1×10^7 cells in 0.1 ml of PBS into the mammary fat pad. Mice were sacrificed and tumors excised six weeks after inoculation. […] Lung and liver metastases were defined as gross lesions of at least 25 cells.

[2] = BAPN 100 mg kg-1 daily i.p. or antibody 20 mg kg-1 twice weekly, control MDA231 tumors

How did the LOX inhibition (LOX) turn out when `N#CCCN` [BAPN, β-aminoproprionitrile] was run?
Its LOX inhibition is “complete LOX inhibition”.

What about the “invasion of FN-null cells” value [1] of the same compound?
The value was “strongly inhibited invasion (similarly to BAPN addition)”.

And the “effect on metastatic tumors already formed” value (MDA-MB 231 cells; 4 wk BAPN, treatment started at week 4)?
The value was “eliminated tumors that had formed”.

And the liver metastases (MDA-MB 231 cells; [2])?
The liver metastases was “did not have any lung metastases or liver metastases”.

What about the lung metastases (MDA-MB 231 cells; [2]) of the same compound?
The lung metastases was “did not have any lung metastases”.

What about the “metastatic lesions formed in orthotopic studies” value (MDA-MB 231 cells; BAPN treated mice) of the same compound?
Its value is “completely absent”.

And the deleterious side effects (MDA-MB 231 cells; antibody up to 20 mg kg-1 twice weekly, BAPN 100 mg kg-1 daily i.p. for four, three or two weeks)?
Its deleterious side effects is “no deleterious side effects”.

What about the primary tumor growth (MDA-MB 231 cells; inhibition of LOX with shRNA, BAPN or antibody) of the same compound?
The primary tumor growth was “slight effect on primary tumor growth”.

What about the “invasion of primary tumors” value (MDA-MB 231 cells; primary tumors from treated mice or tumors expressing LOX shRNA) of the same compound?
The value was “showed evidence of invasion”.

And the liver metastases (MDA-MB 231 cells; reduced antibody doses (4, 1 mg kg-1) or reduced periods of BAPN treatment)?
Its liver metastases is “no liver metastases”.

And the lung metastases (MDA-MB 231 cells; reduced antibody doses (4, 1 mg kg-1) or reduced periods of BAPN treatment, even when metastases had already formed)?
Its lung metastases is “significantly fewer lung metastases”.
